Test results reported in patent US11497713B2, “Combination taxoid nanoemulsion with immunotherapy in cancer” (TargaGenix, Inc., priority 2017, dated 2022).
Entries after “also recorded” stand apart in the source; their conditions may differ. One block for each compound: values may come before it.

How the values were obtained:
Panc02 cells = test: Cell viability (MTT assay) in Panc02 cells; format: cell-based, murine; details: 96 hours of drug exposure
Procedure: The murine pancreatic cancer cell line Panc02, which is syngeneic to C57Bl/6 mice was a kind gift from Professor Michael A. Hollingsworth, UNMC, Omaha, Nebr. Panc02 cells were grown in 75 cm^2 cell culture flasks and maintained in DMEM medium supplemented with 10% fetal bovine serum (FBS), L-glutamine and penicillin (100 U/ml)/streptomycin (100 μg/ml) (both from Gibco Life Technologies, Carlsbad, Calif., USA). Cells were incubated at 37° C. in a humidified atmosphere containing 5% CO2.
To see cytotoxic effect of different drugs and nanoemulsion formulation, 5000 cells were seeded in each well of the 96-well plate for overnight at 37° C. in a humidified atmosphere containing 5% CO2. Various drugs (Paclitaxel, Abraxane, Gemcitabine and solution and nanoemulsion of DHA-SBT-1214) were diluted at concentrations ranging from 0 nM, 0.01 nM, 0.1 nM, 1 nM, 10 nM, 100 nM, 1000 nM to 10000 nM and Panc02 cells treated with these concentrations for 96 hours. After incubation, cells were treated with 3-(4,5-dimethylthiazol-2-yl)-2,5-diphenyltetrazolium bromide ([…]). MU crystals were dissolved with DMSO and plates were read at 570 nm absorbance using a BioTek Synergy HTX Multi-Mode Microplate Reader.
Cells were seeded at 0.5×10^6 cells/well in 6-well plates for overnight at 37 C in a humidified atmosphere containing 5% CO2. […] The percentage maximal response is shown as a function of anti-cancer agents when administered to Panc02 cells. The cell viability was measured by the MTT assay after 96 hours of incubation at 37° C. Data represent mean±standard deviation (n=3). Significant differences are indicated as follows: *p<0.05, and **p<0.01. The expression level of PD-L1 was determined using flow cytometry as follows. […] The cells were washed once with 3% BSA/PBS and analyzed by flow cytometer on a FACSCalibur flow cytometer and CellQuest™ Pro version 6.0 software (both from Becton-Dickinson and Co.). […]

[1] = tested on: PD-L1 surface expression in Panc02 cells; test: PD-L1 surface protein expression by flow cytometry; format: cell-based, murine; details: IC50 concentration, 48 hours
Procedure: Cells were seeded at 0.5×10^6 cells/well in 6-well plates for overnight at 37 C in a humidified atmosphere containing 5% CO2. […] The percentage maximal response is shown as a function of anti-cancer agents when administered to Panc02 cells. The cell viability was measured by the MTT assay after 96 hours of incubation at 37° C. Data represent mean±standard deviation (n=3). Significant differences are indicated as follows: *p<0.05, and **p<0.01. The expression level of PD-L1 was determined using flow cytometry as follows. Briefly, cells harvested from in vitro cultures were washed twice with 3% BSA/PBS and then incubated with rat anti-PD-L1 or isotype control antibodies ([…], BioXcell, West Lebanon, N.H., USA) for 30 minutes at 4 C, then washed three times and incubated with anti-rat AlexaFluor 488 conjugated Antibody. The cells were washed once with 3% BSA/PBS and analyzed by flow cytometer on a FACSCalibur flow cytometer and CellQuest™ Pro version 6.0 software (both from Becton-Dickinson and Co.).
Panc02 cells were treated with gemcitabine, Abraxane™, paclitaxel and DHA-SBT-1214 both in solution and nanoemulsion for 48 hours to determine whether they can induce PD-L1 protein expression. PD-L1 expression levels on tumor cells were determined by flow cytometry and is expressed as the A mean fluorescence intensity (ΔMFI; MFI using anti-PD-L1 subtracted from the isotype control). […] PD-L1 expression was analyzed using flow cytometry and is presented as ΔMFI (MFI using anti-PD-L1 subtracted from the isotype control). Data represent the mean±standard deviation of at least 3 independent experiments; *p<0.05, **p<0.01, ***p<0.001. As reported previously, PD-L1 level enhanced in pancreatic tumor tissues compared to in vitro growing cells as shown in FIG. 8.

Panc02 induced tumor = test: Subcutaneous Panc02 syngeneic pancreatic cancer model, single and combination therapy; format: in vivo, C57Bl/6 mice
Procedure: In addition to evaluation of efficacy in CSC-rich PDAC models, the efficacy of NE-DHA-SBT-1214 in combination with antibody targeted to PD-L1 immune checkpoint inhibitor was examined in subcutaneous (subQ) Panc-2 syngeneic pancreatic cancer model developed in […] mice. After transplantation of the Panc-2 cells, the mice were divided into groups for weekly treatment by intravenous administration of vehicle (as control), gemcitabine (at 120 mg/kg), ABRAXANE® (at 120 mg/kg) and NE-DHA-SBT-1214 (at 10 and 25 mg/kg) as either single in combination with either IgG control or anti-PD-L1 antibody (200 μg/dose). The antibodies were administered intraperitoneally. The treatment started two weeks after tumor transplantation when tumor mass became palpable at 50 to 150 mm^3 in volume.
All experiments involving the use of animals were carried out in strict accordance with the recommendations in the guide for the care and use of laboratory animals of the National Institutes of Health, via a research protocol that was approved by Northeastern University Institutional Animal Care and Use Committee (IACUC). […] Tumor development was monitored twice weekly. The tumor size was measured with a caliper on a weekly basis and approximate tumor volumes determined using the formula 0.5ab^2, where b is the smaller of the two perpendicular diameters. […]

[2] = tested on: CSCs purified from three human colon cancer cell lines, DLD-1, HTC-116, and HT-29; details: cited from earlier work
[3] = tested on: patient-derived PPT2 prostate cancer stem cell xenograft; test: Patient-derived prostate cancer stem cell (PPT2) xenograft model; format: in vivo, mice; details: patient-derived prostate CSC xenograft

IC50 (Panc02 cells; Mus musculus): 154 nM
SMILES: Nc1ccn([C@@H]2O[C@H](CO)[C@@H](O)C2(F)F)c(=O)n1 [gemcitabine]
PD-L1 surface expression (ΔMFI) [1]: upregulated
tumor growth suppression (Panc02 induced tumor; 120 mg/kg weekly ×3): moderate effect

SMILES: CC/C=C\C/C=C\C/C=C\C/C=C\C/C=C\C/C=C\CCC(=O)O[C@@H](C(=O)O[C@H]1C[C@@]2(O)[C@@H](OC(=O)c3ccccc3)[C@@H]3[C@]4(OC(C)=O)CO[C@@H]4C[C@H](O)[C@@]3(C)C(=O)[C@H](OC(=O)C3CC3)C(=C1C)C2(C)C)[C@H](C=C(C)C)NC(=O)OC(C)(C)C [DHA-SBT-1214, Docosahexaenoic acid conjugate of SBT-1214]
IC50 (Panc02 cells): 262 nM
expression of stem related genes [2]: down-regulate stem related genes
PD-L1 surface expression (ΔMFI) [1]: upregulated
efficacy (tumor growth, survival) [3]: effective; also recorded: superior to ABRAXANE® and resulted in tumor clearance
efficacy compared to abraxane at 120 mg/kg (Panc02 induced tumor; 10 mg/kg): superior to abraxane treatment
